From US12498382B2, “Biomarkers for vitiligo” (INCYTE CORPORATION, priority 2019, dated 2025)

Tested on: HaCaT cells
Experiment: Concentrations of inflammatory mediators produced by HaCaT cells stimulated with TNFα and IFNγ in presence/absence of JAK inhibitors (ProCarta)
Format: cell-based, human
Experimental: After 48 hours, cell culture media was removed from 24 well plates and replaced with 250 uL of media containing serial diluted drug, then incubated for 15 minutes at 37° C./5% CO2. […] The final concentration of Recombinant Human Interferon gamma and Recombinant Human Tumor Necrosis Factor alpha was 25 ng/mL of each cytokine. Cytokine stimulation added to wells containing drug brought the final concentrations for each drug treatment to 25 nM, 50 nM, 100 nM, and 200 nM. Treated plates were mixed by gentle agitation for 30 seconds then incubated for 24 hours at 37° C./5% CO2. At the end of the 24 hour incubation media was immediately removed from each plate.
Media was incubated with antibody conjugated beads designed to bind to the epitopes of specific target proteins and identify the bound protein through the bead's distinctive spectral pattern. Biotinylated detection antibodies, designed to bind to different epitopes of the same target proteins, and Streptavidin-PE are added to assay plates to quantify the amount of the target proteins. Assay plates were read on the Luminex 200 and data were expressed as Net Median Fluorescence Intensity. […] The concentration of each protein was extrapolated from the antigen standard curve and concentrations were expressed as pg/mL (Table 15).

[1] = TNFα 25 ng/mL + IFNγ 25 ng/mL, drug 100 nM
[2] = TNFα 25 ng/mL + IFNγ 25 ng/mL, drug 200 nM

N#CCC1(n2cc(-c3ncnc4[nH]ccc34)cn2)CN(C2CCN(C(=O)c3ccnc(C(F)(F)F)c3F)CC2)C1 [Cpc B]
IL15 concentration [1]: 2.58 ± 0.68 pg/mL
IL17A concentration [1]: 4.84 ± 0.34 pg/mL
IL18 concentration [1]: 156.06 ± 3.24 pg/mL
IL21 concentration [1]: 2.36 ± 0.35 pg/mL
IL22 concentration [1]: 8.03 ± 0.87 pg/mL
IL23 concentration [1]: 6.44 ± 0.69 pg/mL
IL27 concentration [1]: 5.36 ± 0.73 pg/mL
IL31 concentration [1]: 3.35 ± 0.44 pg/mL
IP-10/CXCL10 concentration [1]: 4050.7 ± 471.31 pg/mL
LIF concentration [1]: 70.3 ± 3.65 pg/mL
MCP1 concentration [1]: 15200 ± 0 pg/mL
MIP1 alpha concentration [1]: 91.52 ± 5.05 pg/mL
MIP1 beta concentration [1]: 323.13 ± 6.82 pg/mL
PDGF-BB concentration [1]: 5.4 ± 0.16 pg/mL
PIGF-1 concentration [1]: 54.67 ± 3.27 pg/mL
RANTES concentration [1]: 194.21 ± 12.67 pg/mL
SCF concentration [1]: 4.26 ± 0.17 pg/mL
SDF-1 alpha concentration [1]: 3471.01 ± 111.77 pg/mL
TNF alpha concentration [1]: 11722.68 ± 1259.67 pg/mL
TNF beta concentration [1]: 4 ± 0.51 pg/mL
VEGF-A concentration [1]: 1262.01 ± 46.28 pg/mL
VEGF-D concentration [1]: 8.71 ± 0.65 pg/mL
bNGF concentration [1]: 7.04 ± 0.59 pg/mL
BDNF concentration [2]: 4.1 ± 0.24 pg/mL
EGF concentration [2]: 1.52 ± 0.1 pg/mL
Eotaxin concentration [2]: 10.05 ± 0.19 pg/mL
FGF-2 concentration [2]: 21.39 ± 1.61 pg/mL
GM-CSF concentration [2]: 134.13 ± 3.74 pg/mL
GRO alpha concentration [2]: 563.61 ± 42.17 pg/mL
HGF concentration [2]: 13.5 ± 0.57 pg/mL
IFN alpha concentration [2]: 0.26 ± 0 pg/mL
IFN gamma concentration [2]: 25272.53 ± 3796.83 pg/mL
IL1RA concentration [2]: 5710.44 ± 269.38 pg/mL
IL1 alpha concentration [2]: 6.16 ± 0.35 pg/mL
IL1 beta concentration [2]: 8.43 ± 0.29 pg/mL
IL2 concentration [2]: 31.86 ± 1.25 pg/mL
IL4 concentration [2]: 6.42 ± 1.24 pg/mL
IL5 concentration [2]: 25.88 ± 1.37 pg/mL
IL6 concentration [2]: 568.73 ± 24.74 pg/mL
IL7 concentration [2]: 2.09 ± 0.14 pg/mL
IL8 concentration [2]: 3023.88 ± 193.36 pg/mL
IL9 concentration [2]: 3.28 ± 0.35 pg/mL
IL10 concentration [2]: 0.84 ± 0.06 pg/mL
IL12p70 concentration [2]: 1.87 ± 0.16 pg/mL
IL13 concentration [2]: 2.52 ± 0.3 pg/mL
IL15 concentration [2]: 2.57 ± 0.54 pg/mL
IL17A concentration [2]: 4.43 ± 0.26 pg/mL
IL18 concentration [2]: 159.36 ± 4.73 pg/mL
IL21 concentration [2]: 2.47 ± 0.28 pg/mL
IL22 concentration [2]: 7.74 ± 0.78 pg/mL
IL23 concentration [2]: 7.41 ± 0.5 pg/mL
IL27 concentration [2]: 8.04 ± 1.65 pg/mL
IL31 concentration [2]: 3.93 ± 0.4 pg/mL
IP-10/CXCL10 concentration [2]: 4071.78 ± 411.22 pg/mL
LIF concentration [2]: 71.92 ± 2.82 pg/mL
MCP1 concentration [2]: 17302.89 ± 2102.89 pg/mL
MIP1 alpha concentration [2]: 83.1 ± 2.77 pg/mL
MIP1 beta concentration [2]: 318.83 ± 8.71 pg/mL
PDGF-BB concentration [2]: 5.28 ± 0.15 pg/mL
PIGF-1 concentration [2]: 54.61 ± 2.69 pg/mL
RANTES concentration [2]: 183.18 ± 13.92 pg/mL
SCF concentration [2]: 4.2 ± 0.17 pg/mL
SDF-1 alpha concentration [2]: 3481.04 ± 134.24 pg/mL
TNF alpha concentration [2]: 11233.91 ± 945.2 pg/mL
TNF beta concentration [2]: 4.42 ± 0.45 pg/mL
VEGF-A concentration [2]: 1232.36 ± 49.33 pg/mL
VEGF-D concentration [2]: 9.12 ± 0.78 pg/mL
bNGF concentration [2]: 6.52 ± 0.69 pg/mL
BDNF concentration (no stimulation, drug 200 nM): 5.35 ± 0.34 pg/mL
EGF concentration (no stimulation, drug 200 nM): 1.06 ± 0.14 pg/mL
Eotaxin concentration (no stimulation, drug 200 nM): 2.22 ± 0.09 pg/mL
FGF-2 concentration (no stimulation, drug 200 nM): 8.5 ± 0.95 pg/mL
GM-CSF concentration (no stimulation, drug 200 nM): 8.69 ± 1.22 pg/mL
GRO alpha concentration (no stimulation, drug 200 nM): 228.97 ± 14.45 pg/mL
HGF concentration (no stimulation, drug 200 nM): 4.44 ± 0.32 pg/mL
IFN alpha concentration (no stimulation, drug 200 nM): 0.23 ± 0.02 pg/mL
IFN gamma concentration (no stimulation, drug 200 nM): 3.39 ± 0.69 pg/mL
IL1RA concentration (no stimulation, drug 200 nM): 502.58 ± 57.22 pg/mL
IL1 alpha concentration (no stimulation, drug 200 nM): 0.29 ± 0.03 pg/mL
IL1 beta concentration (no stimulation, drug 200 nM): 0.98 ± 0.14 pg/mL
IL2 concentration (no stimulation, drug 200 nM): 3.32 ± 0.6 pg/mL
IL4 concentration (no stimulation, drug 200 nM): 4.61 ± 0.7 pg/mL
IL5 concentration (no stimulation, drug 200 nM): 2.84 ± 0.38 pg/mL
IL6 concentration (no stimulation, drug 200 nM): 26.86 ± 2.62 pg/mL
IL7 concentration (no stimulation, drug 200 nM): 3.03 ± 0.2 pg/mL
IL8 concentration (no stimulation, drug 200 nM): 261.92 ± 12.12 pg/mL
IL9 concentration (no stimulation, drug 200 nM): 3.91 ± 0.48 pg/mL
IL10 concentration (no stimulation, drug 200 nM): 0.32 ± 0.07 pg/mL
IL12p70 concentration (no stimulation, drug 200 nM): 1.55 ± 0.29 pg/mL
IL13 concentration (no stimulation, drug 200 nM): 1.14 ± 0.13 pg/mL
IL15 concentration (no stimulation, drug 200 nM): 2.22 ± 0.42 pg/mL
IL17A concentration (no stimulation, drug 200 nM): 1.2 ± 0.29 pg/mL
IL18 concentration (no stimulation, drug 200 nM): 6.04 ± 0.5 pg/mL
IL21 concentration (no stimulation, drug 200 nM): 2.43 ± 0.31 pg/mL
IL22 concentration (no stimulation, drug 200 nM): 8.13 ± 0.77 pg/mL
IL23 concentration (no stimulation, drug 200 nM): 5.8 ± 1.11 pg/mL
IL27 concentration (no stimulation, drug 200 nM): 7.57 ± 2.22 pg/mL
IL31 concentration (no stimulation, drug 200 nM): 3.01 ± 0.44 pg/mL
IP-10/CXCL10 concentration (no stimulation, drug 200 nM): 19.75 ± 0.42 pg/mL
LIF concentration (no stimulation, drug 200 nM): 23.25 ± 0.99 pg/mL
MCP1 concentration (no stimulation, drug 200 nM): 1125.31 ± 55.12 pg/mL
MIP1 alpha concentration (no stimulation, drug 200 nM): 2.63 ± 0.35 pg/mL
MIP1 beta concentration (no stimulation, drug 200 nM): 113.94 ± 3.76 pg/mL
PDGF-BB concentration (no stimulation, drug 200 nM): 2.15 ± 0.13 pg/mL
PIGF-1 concentration (no stimulation, drug 200 nM): 20.17 ± 1.26 pg/mL
RANTES concentration (no stimulation, drug 200 nM): 8.42 ± 0.51 pg/mL
SCF concentration (no stimulation, drug 200 nM): 1.93 ± 0.13 pg/mL
SDF-1 alpha concentration (no stimulation, drug 200 nM): 1003.25 ± 40.97 pg/mL
TNF alpha concentration (no stimulation, drug 200 nM): 2.4 ± 0.71 pg/mL
TNF beta concentration (no stimulation, drug 200 nM): 4.7 ± 0.28 pg/mL
VEGF-A concentration (no stimulation, drug 200 nM): 554.18 ± 29.76 pg/mL
VEGF-D concentration (no stimulation, drug 200 nM): 3.19 ± 0.57 pg/mL
bNGF concentration (no stimulation, drug 200 nM): 3.84 ± 0.71 pg/mL
